Measurements from paper PMC6691788, “Design and synthesis of phthalazine-based compounds as potent anticancer agents with potential antiangiogenic activity via VEGFR-2 inhibition” (Journal of Enzyme Inhibition and Medicinal Chemistry, 2019).

Key:
Experiment in all cases: NCI 60 cell panel SRB screen
CCRF-CEM = format: cell-based, human
K-562 = format: cell-based; settings: Homo sapiens, K562
MOLT-4 = format: cell-based; settings: Homo sapiens
RPMI-8226 = format: cell-based; settings: Homo sapiens
SR = format: cell-based; settings: Homo sapiens
HOP-62 = format: cell-based; settings: Homo sapiens
HOP-92 = format: cell-based; settings: Homo sapiens
NCI-H226 = format: cell-based; settings: Homo sapiens
NCI-H322M = format: cell-based; settings: Homo sapiens
HCC-2998 = format: cell-based; settings: Homo sapiens
HCT-116 = format: cell-based; settings: Homo sapiens
HCT-15 = format: cell-based; settings: Homo sapiens
KM12 = format: cell-based; settings: Homo sapiens
SF-268 = format: cell-based; settings: Homo sapiens
SNB-19 = format: cell-based; settings: Homo sapiens
SNB-75 = format: cell-based; settings: Homo sapiens
U251 = format: cell-based; settings: Homo sapiens, U-251
LOX IMVI = format: cell-based; settings: Homo sapiens
UACC-257 = format: cell-based; settings: Homo sapiens
UACC-62 = format: cell-based
OVCAR-5 = format: cell-based; settings: Homo sapiens
SK-OV-3 = format: cell-based; settings: Homo sapiens
ACHN = format: cell-based; settings: Homo sapiens
CAKI-1 = format: cell-based, human
SN12C = format: cell-based; settings: Homo sapiens
TK-10 = format: cell-based, human
DU-145 = format: cell-based; settings: Homo sapiens
MCF7 = format: cell-based; settings: Homo sapiens
MDA-MB 231/ATCC = format: cell-based; settings: Homo sapiens
HS 578T = format: cell-based; settings: Homo sapiens
BT-549 = format: cell-based; settings: Homo sapiens
T-47D = format: cell-based; settings: Homo sapiens, T47D
[1] = 5 log dose, 48 h, read-out: LC50 (the source's name)
[2] = single dose 10 μM, read-out: percent cell growth promotion
[3] = read-out: percent cell growth promotion

## O=C(Nc1ccc(Cl)cc1)Nc1ccc(Nc2nncc3ccccc23)cc1 [Compound 6b, 1–(4-Chlorophenyl)-3–(4-(phthalazin-1-ylamino)phenyl)urea]
CCRF-CEM; 5 log dose
  TGI: 17.0 µM
CCRF-CEM; Homo sapiens, 5 log dose
  GI50: 2.57 µM
CCRF-CEM; Homo sapiens, 5 log dose, 48 h, read-out: LC50 (the source's name)
  CC50: > 100 µM
CCRF-CEM; Homo sapiens, single dose 10 μM, read-out: percent cell growth promotion
  activity at 10 µM: 13.1%
K-562; K-562, 5 log dose
  GI50: 1.68 µM
  IC (TGI): 26.4 µM
K-562; K-562, 5 log dose, 48 h, read-out: LC50 (the source's name)
  CC50: > 100 µM
K-562; K-562, single dose 10 μM, read-out: percent cell growth promotion
  activity at 10 µM: 9.49%
MOLT-4; MOLT-4, 5 log dose
  GI50: 2.09 µM
  IC (TGI): 6.36 µM
MOLT-4; MOLT-4, 5 log dose, 48 h, read-out: LC50 (the source's name)
  CC50: > 100 µM
MOLT-4; MOLT-4, single dose 10 μM, read-out: percent cell growth promotion
  activity at 10 µM: -1.61%
RPMI-8226; RPMI-8226, 5 log dose
  GI50: 2.5 µM
  IC (TGI): 8.75 µM
RPMI-8226; RPMI-8226, 5 log dose, 48 h, read-out: LC50 (the source's name)
  CC50: > 100 µM
RPMI-8226; RPMI-8226, single dose 10 μM, read-out: percent cell growth promotion
  activity at 10 µM: 8.62%
SR; 5 log dose
  GI50: 3.89 µM
  IC (TGI): 23.3 µM
SR; [1]
  CC50: > 100 µM
SR; [2]
  activity at 10 µM: 17.5%
HOP-62; HOP-62, 5 log dose
  GI50: 3 µM
  IC (TGI): 14.9 µM
HOP-62; HOP-62, 5 log dose, 48 h, read-out: LC50 (the source's name)
  CC50: 74.9 µM
HOP-62; HOP-62, single dose 10 μM, read-out: percent cell growth promotion
  activity at 10 µM: 20.6%
HOP-92; HOP-92, 5 log dose
  GI50: 2.55 µM
  IC (TGI): 7.26 µM
HOP-92; HOP-92, 5 log dose, 48 h, read-out: LC50 (the source's name)
  CC50: > 100 µM
HOP-92; HOP-92, single dose 10 μM, read-out: percent cell growth promotion
  activity at 10 µM: 38.7%
NCI-H226; NCI-H226, 5 log dose
  GI50: 2.46 µM
  IC (TGI): 12.5 µM
NCI-H226; NCI-H226, 5 log dose, 48 h, read-out: LC50 (the source's name)
  CC50: 43.2 µM
NCI-H226; NCI-H226, single dose 10 μM, read-out: percent cell growth promotion
  activity at 10 µM: 33.3%
NCI-H322M; 5 log dose
  GI50: 5 µM
  IC (TGI): 15 µM
NCI-H322M; [1]
  CC50: > 100 µM
NCI-H322M; [2]
  activity at 10 µM: 64.3%
HCC-2998; HCC-2998, 5 log dose
  GI50: 3.26 µM
  IC (TGI): 19.8 µM
HCC-2998; HCC-2998, 5 log dose, 48 h
  LC50 (50% lethal concentration): > 100 µM
HCC-2998; HCC-2998, single dose 10 μM, read-out: percent cell growth promotion
  activity at 10 µM: 30.7%
HCT-116; HCT-116, 5 log dose
  GI50: 2.46 µM
  IC (TGI): 12 µM
HCT-116; HCT-116, 5 log dose, 48 h
  LC50 (lethal concentration 50%): 37.4 µM
HCT-116; HCT-116, single dose 10 μM, read-out: percent cell growth promotion
  activity at 10 µM: 15.2%
HCT-15; HCT-15, 5 log dose
  GI50: 1.59 µM
  IC (TGI): 11.8 µM
HCT-15; HCT-15, 5 log dose, 48 h, read-out: LC50 (the source's name)
  CC50: 71.5 µM
HCT-15; HCT-15, single dose 10 μM, read-out: percent cell growth promotion
  activity at 10 µM: 18.3%
KM12; KM12, 5 log dose
  GI50: 1.47 µM
  IC (TGI): 11.4 µM
KM12; KM12, 5 log dose, 48 h, read-out: LC50 (the source's name)
  CC50: 45 µM
KM12; KM12, single dose 10 μM, read-out: percent cell growth promotion
  activity at 10 µM: 18.9%
SF-268; SF-268, 5 log dose
  GI50: 3.19 µM
  IC (TGI): 28.1 µM
SF-268; SF-268, 5 log dose, 48 h, read-out: LC50 (the source's name)
  CC50: > 100 µM
SF-268; SF-268, single dose 10 μM, read-out: percent cell growth promotion
  activity at 10 µM: 42.4%
SNB-19; SNB-19, 5 log dose
  GI50: 3.67 µM
  IC (TGI): 19 µM
SNB-19; SNB-19, 5 log dose, 48 h, read-out: LC50 (the source's name)
  CC50: > 100 µM
SNB-19; SNB-19, single dose 10 μM, read-out: percent cell growth promotion
  activity at 10 µM: 33%
SNB-75; SNB-75, 5 log dose
  GI50: 1.88 µM
  IC (TGI): 8.67 µM
SNB-75; SNB-75, 5 log dose, 48 h
  LC50 (concentration killing 50% of cells): 31.8 µM
SNB-75; SNB-75, single dose 10 μM, read-out: percent cell growth promotion
  activity at 10 µM: 46.2%
U251; U251, 5 log dose
  GI50: 2.86 µM
  IC (TGI): 10.3 µM
U251; U251, 5 log dose, 48 h, read-out: LC50 (the source's name)
  CC50: 37.2 µM
U251; U251, single dose 10 μM, read-out: percent cell growth promotion
  activity at 10 µM: 18.3%
LOX IMVI
  GI50: 0.82 µM
LOX IMVI; [1]
  CC50: 53.2 µM
LOX IMVI; read-out: TGI
  IC (TGI): 14.6 µM
LOX IMVI; [3]
  activity at 10 µM: 33.6%
UACC-257; UACC-257
  GI50: 3.41 µM
UACC-257; UACC-257, read-out: TGI
  IC (TGI): 10.8 µM
UACC-257; UACC-257, read-out: percent cell growth promotion
  activity at 10 µM: 15.3%
UACC-257; UACC-257, 5 log dose, 48 h, read-out: LC50 (the source's name)
  CC50: 33.5 µM
UACC-62; Homo sapiens, UACC-62
  GI50: 0.95 µM
UACC-62; Homo sapiens, UACC-62, read-out: percent cell growth promotion
  activity at 10 µM: 13.4%
UACC-62; Homo sapiens, UACC-62, 5 log dose, 48 h, read-out: LC50 (the source's name)
  CC50: 38.1 µM
UACC-62; UACC-62, 5 log dose
  TGI: 7.97 µM
OVCAR-5; OVCAR-5, 5 log dose
  GI50: 4.15 µM
  IC (TGI): 34.3 µM
OVCAR-5; OVCAR-5, 5 log dose, 48 h, read-out: LC50 (the source's name)
  CC50: > 100 µM
OVCAR-5; OVCAR-5, single dose 10 μM, read-out: percent cell growth promotion
  activity at 10 µM: 85.6%
SK-OV-3; SK-OV-3, 5 log dose
  GI50: 3.05 µM
  IC (TGI): 17.7 µM
SK-OV-3; SK-OV-3, 5 log dose, 48 h, read-out: LC50 (the source's name)
  CC50: > 100 µM
SK-OV-3; SK-OV-3, single dose 10 μM, read-out: percent cell growth promotion
  activity at 10 µM: 38.2%
ACHN; 5 log dose
  GI50: 1.12 µM
  IC (TGI): 7.12 µM
ACHN; [1]
  CC50: > 100 µM
ACHN; [2]
  activity at 10 µM: 22.4%
CAKI-1; CAKI-1, 5 log dose
  TGI: 12.5 µM
CAKI-1; Homo sapiens, CAKI-1, 5 log dose
  GI50: 1.97 µM
CAKI-1; Homo sapiens, CAKI-1, 5 log dose, 48 h, read-out: LC50 (the source's name)
  CC50: 88 µM
CAKI-1; Homo sapiens, CAKI-1, single dose 10 μM, read-out: percent cell growth promotion
  activity at 10 µM: 20.6%
SN12C; 5 log dose
  GI50: 4.58 µM
  IC (TGI): 37.2 µM
SN12C; [1]
  CC50: > 100 µM
SN12C; [2]
  activity at 10 µM: 26.4%
TK-10; Homo sapiens, TK-10, 5 log dose
  GI50: 5.03 µM
TK-10; Homo sapiens, TK-10, 5 log dose, 48 h, read-out: LC50 (the source's name)
  CC50: > 100 µM
TK-10; Homo sapiens, TK-10, single dose 10 μM, read-out: percent cell growth promotion
  activity at 10 µM: 32%
TK-10; TK-10, 5 log dose
  TGI: 24.4 µM
DU-145; DU-145, 5 log dose
  GI50: 3.17 µM
  IC (TGI): 26.9 µM
DU-145; DU-145, 5 log dose, 48 h, read-out: LC50 (the source's name)
  CC50: > 100 µM
DU-145; DU-145, single dose 10 μM, read-out: percent cell growth promotion
  activity at 10 µM: 33.7%
MCF7; MCF7
  GI50: 1.43 µM
MCF7; MCF7, read-out: TGI
  IC (TGI): 8.32 µM
MCF7; MCF7, read-out: percent cell growth promotion
  activity at 10 µM: 5.46%
MCF7; MCF7, 5 log dose, 48 h, read-out: LC50 (the source's name)
  CC50: 64.1 µM
MDA-MB 231/ATCC; MDA-MB-231
  GI50: 3.4 µM
MDA-MB 231/ATCC; MDA-MB-231, read-out: TGI
  IC (TGI): 15.9 µM
MDA-MB 231/ATCC; MDA-MB-231, read-out: percent cell growth promotion
  activity at 10 µM: 36.6%
MDA-MB 231/ATCC; MDA-MB-231, MDA-MDA 231/ATCC, 5 log dose, 48 h, read-out: LC50 (the source's name)
  CC50: 64.9 µM
HS 578T; Hs-578T
  GI50: 3.83 µM
HS 578T; Hs-578T, read-out: TGI
  IC (TGI): 27.7 µM
HS 578T; Hs-578T, read-out: percent cell growth promotion
  activity at 10 µM: 58.3%
HS 578T; HS 578T, 5 log dose, 48 h, read-out: LC50 (the source's name)
  CC50: > 100 µM
BT-549; BT-549
  GI50: 2.15 µM
BT-549; BT-549, read-out: TGI
  IC (TGI): 9.28 µM
BT-549; BT-549, read-out: percent cell growth promotion
  activity at 10 µM: 15.7%
BT-549; BT-549, 5 log dose, 48 h, read-out: LC50 (the source's name)
  CC50: > 100 µM
T-47D
  GI50: 1.03 µM
T-47D; read-out: TGI
  IC (TGI): 5.35 µM
T-47D; [3]
  activity at 10 µM: -6.32%
T-47D; T-47D, 5 log dose, 48 h, read-out: LC50 (the source's name)
  CC50: 79.3 µM
